Assays:
[1] = target: rat TAAR1 (Rattus norvegicus (Rat), UniProt Q923Y9); test: Radioligand binding assay on rat TAAR1; details: read-out: Ki(μM) rat; rat TAAR1, HEK-293 membranes, second value of cell pair mouse/rat
[2] = target: mouse TAAR1 (Mus musculus (Mouse), UniProt Q923Y8); test: Radioligand binding assay on mouse TAAR1
Chain of mouse TAAR1 (Q923Y8 whole entry): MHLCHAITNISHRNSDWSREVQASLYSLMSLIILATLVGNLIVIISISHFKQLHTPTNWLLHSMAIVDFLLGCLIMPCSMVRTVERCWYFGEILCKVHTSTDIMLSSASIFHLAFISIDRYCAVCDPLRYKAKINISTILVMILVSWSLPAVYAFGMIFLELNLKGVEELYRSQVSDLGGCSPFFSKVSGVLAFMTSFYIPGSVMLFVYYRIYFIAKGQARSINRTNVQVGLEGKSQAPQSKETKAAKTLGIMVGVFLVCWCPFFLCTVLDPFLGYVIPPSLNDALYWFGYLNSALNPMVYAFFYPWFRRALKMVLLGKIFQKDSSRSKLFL

Chain of rat TAAR1 (Q923Y9 whole entry): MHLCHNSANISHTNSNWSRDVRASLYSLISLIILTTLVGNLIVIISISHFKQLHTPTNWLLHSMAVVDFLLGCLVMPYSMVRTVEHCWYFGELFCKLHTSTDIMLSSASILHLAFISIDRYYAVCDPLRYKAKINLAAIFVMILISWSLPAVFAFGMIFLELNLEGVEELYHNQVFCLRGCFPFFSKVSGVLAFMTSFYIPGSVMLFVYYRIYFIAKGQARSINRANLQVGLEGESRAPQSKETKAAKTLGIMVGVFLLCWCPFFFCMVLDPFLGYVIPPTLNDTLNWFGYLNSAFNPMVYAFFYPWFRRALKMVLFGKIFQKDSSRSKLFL

Compound	Ki [1]	Ki [2]
Cc1cc(C(=O)Nc2cc(F)c(C=C3CNC3)c(F)c2)nc(C(F)(F)F)n1 [Example 82, N-(4-(azetidin-3-ylidenemethyl)-3,5-difluorophenyl)-6-methyl-2-(trifluoromethyl)pyrimidine-4-carboxamide]	0.0055 µM	27.8 nM
CCc1n[nH]c(C(=O)Nc2cc(F)c(C=C3CNC3)c(F)c2)c1C [Example 83, N-(4-(azetidin-3-ylidenemethyl)-3,5-difluorophenyl)-3-ethyl-4-methyl-1H-pyrazole-5-carboxamide]	0.0009 µM	16.7 nM
O=C(Nc1cc(F)c(C=C2CNC2)c(F)c1)c1ccc(Cl)nc1 [Example 84, N-(4-(azetidin-3-ylidenemethyl)-3,5-difluorophenyl)-6-chloronicotinamide]	0.0014 µM	3.3 nM
Cc1cc(C(=O)Nc2ccc(C=C3CNC3)c(F)c2)nc(C(F)(F)F)n1 [Example 85, N-(4-(azetidin-3-ylidenemethyl)-3-fluorophenyl)-6-methyl-2-(trifluoromethyl)pyrimidine-4-carboxamide]	0.0134 µM	50.9 nM
O=C(Nc1ccc(C=C2CNC2)c(F)c1)c1ccc(Cl)nc1 [Example 86, N-(4-(azetidin-3-ylidenemethyl)-3-fluorophenyl)-6-chloronicotinamide]	0.0038 µM	1.8 nM
CCc1cc(C(=O)Nc2cc(F)c(C=C3CNC3)c(F)c2)nc(C(F)(F)F)n1 [Example 87, N-(4-(azetidin-3-ylidenemethyl)-3,5-difluorophenyl)-6-ethyl-2-(trifluoromethyl)pyrimidine-4-carboxamide]	0.0024 µM	12.2 nM
CCc1n[nH]c(C(=O)Nc2ccc(C=C3CNC3)c(F)c2)c1C [Example 88, N-(4-(azetidin-3-ylidenemethyl)-3-fluorophenyl)-3-ethyl-4-methyl-1H-pyrazole-5-carboxamide]	0.005 µM	17.4 nM
c1ccc(C[C@H]2CCN2)cc1 [Example 89, (S)-2-benzylazetidine]	0.0822 µM	1520 nM
F[C@H]1CN[C@H]1Cc1ccccc1 [Example 90, (2S,3S)-2-benzyl-3-fluoroazetidine]	0.274 µM	4380 nM
F[C@@H]1CN[C@H]1Cc1ccccc1 [Example 91, (2S,3R)-2-benzyl-3-fluoroazetidine]	0.149 µM	1070 nM
F[C@@H]1CN[C@@H]1Cc1ccccc1 [Example 92, (2R,3R)-2-benzyl-3-fluoroazetidine]	0.607 µM	244 nM
F[C@H]1CN[C@@H]1Cc1ccccc1 [Example 93, (2R,3S)-2-benzyl-3-fluoroazetidine]	2.09 µM	1280 nM
CO[C@H]1CN[C@H]1Cc1ccccc1 [Example 94, (2S,3S)-2-benzyl-3-methoxyazetidine]	0.767 µM	4050 nM
CO[C@@H]1CN[C@H]1Cc1ccccc1 [Example 95, (2S,3R)-2-benzyl-3-methoxyazetidine]	0.648 µM	2770 nM
CO[C@@H]1CN[C@@H]1Cc1ccccc1 [Example 100, (2R,3R)-2-benzyl-3-methoxyazetidine]	0.151 µM	317 nM
CO[C@H]1CN[C@@H]1Cc1ccccc1 [Example 101, (2R,3S)-2-benzyl-3-methoxyazetidine]	2.04 µM	2610 nM
CCc1n[nH]c(C(=O)Nc2ccc(C[C@@H]3NC[C@@H]3F)cc2)c1C [Example 102, 3-ethyl-N-(4-(((2S,3S)-3-fluoroazetidin-2-yl)methyl)phenyl)-4-methyl-1H-pyrazole-5-carboxamide]	0.0875 µM	14.8 nM
CCc1n[nH]c(C(=O)Nc2ccc(C[C@H]3NC[C@H]3F)cc2)c1C [Example 103, 3-ethyl-N-(4-(((2R,3R)-3-fluoroazetidin-2-yl)methyl)phenyl)-4-methyl-1H-pyrazole-5-carboxamide]	1.27 µM	45.6 nM
